Columns and labels:
[1] = test system: K562 cells; assay: Anti-K562 cell proliferation activity test (CCK-8); type: cell-based; details: Homo sapiens, 48 hours, read-out: median inhibitory concentration (IC50)
Procedure: The operation method of the anti-K562 cell proliferation activity test is as follows:
100 μL of K562 cell suspension and 10 μL of test compounds of different concentrations were prepared in a 96-well plate. The culture plate was placed in an incubator for incubation for 48 hours (37° C., 5% CO2). 10 μL of CCK-8 solution was added to each well. The culture plate was placed in an incubator for incubation for 1-4 hours. The absorbency was measured at 450 nm with a microplate reader. […] (%)=[A (with drug)−A (blank)]/[A (with 0 drug)−A (blank)]×100, wherein:
A (with drug): the absorbency of the wells containing cells, CCK-8 solution and drug solution
A (blank): the absorbency of wells containing medium and CCK-8 solution but no cells
A (with 0 drug): the absorbency of the wells containing cells and CCK-8 solution but no drug solution

[2] = test system: K562 cell line; assay: Cell viability test (CellTiter-Glo), K562; type: cell-based
Procedure: (§1) The operation method of the K562 cell viability test is as follows:
(§2) 50 μL of K562, MCF-7, HCT116 and A549 cell suspensions were added to a 96-well plate and incubated for 12 hours. 10 μL of compound was added to the well and incubated for 48 hours. Operation was performed according to a CellTiter-Glo® luminescent cell viability assay kit (Promega). Nonlinear regression analysis data in GraphPad Prism 6 was used.

[3] = test system: HEK293T; assay: Cell viability test, HEK293T; type: cell-based; details: non-BCR-ABL dependent cell line
[4] = test system: MCF-7 breast cancer; assay: Cell viability test (CellTiter-Glo), MCF-7; type: cell-based; details: non-BCR-ABL dependent tumor cell line
Procedure: as §1, §2

[5] = Photo-isomerization by UV-Vis absorption spectrum; type: physicochemical
Procedure: Then, we explored the photodynamic characteristics of the compound 4C through UV-Vis absorption spectrum. […] In addition, since the compound 4C is a T-type optical switch, the cis configuration underwent self-heating relaxation under dark conditions to transform into the trans configuration, and T½ was about 10 hours at 25° C.

[6] = molecular target: T1, BCR-ABL fusion protein (Homo sapiens, UniProt P00519+P11274+Q96SW2, E27K); assay: Simulated light control, BCR-ABL level in K562 cells (immunoblotting); type: cell-based; details: 100 nM for 24 hours, then fresh medium
T1 construct: By using BCR-ABL and CRBN positive K562 cell lines; endogenous in cells; host or cells: K562
Procedure: (§3) In order to simulate a light control process, the researchers treated K562 cells with the compound 4C-trans for 24 hours. Then the cells were transferred to fresh media and divided into 2 groups: one group was placed in a dark room (VIS group), and the other group was irradiated with UV after 0, 4, 8, 12, 16, and 24 hours of incubation to simulate the photo-isomerization process (UV group).
(§4) The specific operation method for simulating light control is as follows:
(§5) The compound 4C-trans at a final concentration of 100 nM was added to K562 cells, and the cells were incubated at 37° C. for 24 hours. The medium was washed off, and the cells were washed 2 times with 1*PBS. Then the cells were transferred to fresh 1640 medium (10% FBS, 1*glutamine) for culture, and divided into two groups: one group was placed in a dark room, and the other group was irradiated with UV-C light for 30 min every 4 hours. The cells were collected after transfer and incubation for 0, 4, 8, 16, and 24 hours respectively, and post-treatment of the cells was the same as that of immunoblotting.

[7] = molecular target: T2, ABL (Homo sapiens, UniProt P00519); assay: Simulated light control, ABL level in K562 cells (immunoblotting); type: cell-based; details: 100 nM for 24 hours, then fresh medium
T2 construct: degradation effect of the compound 4C on c-ABL and BCR-ABL proteins in K562 cells; endogenous in cells; host or cells: K562
T2 sequence (P00519 whole entry): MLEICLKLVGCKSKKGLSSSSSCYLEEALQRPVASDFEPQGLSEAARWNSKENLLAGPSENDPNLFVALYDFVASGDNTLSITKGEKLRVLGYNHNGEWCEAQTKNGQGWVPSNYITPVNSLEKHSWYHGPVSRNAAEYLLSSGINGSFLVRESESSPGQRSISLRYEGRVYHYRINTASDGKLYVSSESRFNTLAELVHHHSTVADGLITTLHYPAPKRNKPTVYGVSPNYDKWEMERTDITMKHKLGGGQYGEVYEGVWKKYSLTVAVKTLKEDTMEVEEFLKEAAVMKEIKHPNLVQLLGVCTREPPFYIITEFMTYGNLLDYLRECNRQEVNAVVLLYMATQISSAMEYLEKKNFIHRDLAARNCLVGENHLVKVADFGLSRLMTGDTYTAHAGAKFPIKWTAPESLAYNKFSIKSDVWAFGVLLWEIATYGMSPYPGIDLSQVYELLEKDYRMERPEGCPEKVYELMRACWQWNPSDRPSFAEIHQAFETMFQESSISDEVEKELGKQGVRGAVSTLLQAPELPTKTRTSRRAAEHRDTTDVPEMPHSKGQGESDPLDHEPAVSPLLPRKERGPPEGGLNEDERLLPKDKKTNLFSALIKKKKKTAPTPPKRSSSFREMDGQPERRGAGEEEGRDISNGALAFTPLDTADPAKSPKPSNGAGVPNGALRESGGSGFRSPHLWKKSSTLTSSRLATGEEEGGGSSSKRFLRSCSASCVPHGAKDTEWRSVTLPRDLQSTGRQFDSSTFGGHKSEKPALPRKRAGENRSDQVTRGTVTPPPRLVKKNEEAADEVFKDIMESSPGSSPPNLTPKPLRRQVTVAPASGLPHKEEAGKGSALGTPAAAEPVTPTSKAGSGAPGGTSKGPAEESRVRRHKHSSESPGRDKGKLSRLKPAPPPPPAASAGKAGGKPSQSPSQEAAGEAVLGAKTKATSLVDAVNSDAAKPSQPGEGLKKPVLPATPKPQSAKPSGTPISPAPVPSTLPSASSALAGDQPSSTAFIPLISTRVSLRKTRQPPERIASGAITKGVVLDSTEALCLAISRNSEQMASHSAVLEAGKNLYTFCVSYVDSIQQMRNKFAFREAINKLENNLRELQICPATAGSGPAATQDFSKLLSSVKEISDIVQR
Procedure: as §3, §4, §5

[8] = test system: K562 cells; assay: Time-effect experiment, apoptosis of K562 cells; type: cell-based; details: 250 nM, after 48 hours
[9] = UV-C 30 min every 4 hours (UV group)
[10] = dark room (VIS group), 0-24 hours

SMILES: Cc1nc(Nc2ncc(C(=O)Nc3c(C)cccc3Cl)s2)cc(N2CCN(CCCCOc3ccc(/N=N/c4ccc(C(=O)Nc5cccc6c5CN(C5CCC(=O)NC5=O)C6=O)cc4)cc3)CC2)n1 (stereo not drawn) [Compound 4C, (E)-N-(2-chloro-6-methylphenyl)-2-((6-(4-(4-(4-((4-((2-(2,6-dioxopiperidin-3-yl)-1-oxoisoindolin-4-yl)carbamoyl)phenyl)diazenyl)phenoxy)butyl)piperazin-1-yl)-2-methylpyrimidin-4-yl)amino)thiazole-5-carboxamide]
- IC50 [1]: 68 nM
- EC50 ([2]; Homo sapiens, K562 cells, 48 hours, CellTiter-Glo, read-out: median effective concentration (EC50)): 28 nM
- selectivity for the BCR-ABL dependent K562 cell line ([2]; versus A549, HCT116, HEK293T, MCF-7): good selectivity
- effect on cell viability [3]: hardly affects
- effect on cell viability [4]: hardly affects
- transformation from trans to cis configuration (absorbency-time curve at 361 nm) ([5]; UV irradiation for 1 hour): almost completely transformed to the cis configuration
- reversibility of the photosensitive switch (stability) ([5]; irradiated with ultraviolet light and white light in turn for 5 times): still relatively stable
- BCR-ABL level after washout [6, 9]: increased over time
- BCR-ABL fusion protein level after washout [6, 10]: remained at a low level
- ABL level after washout [7, 9]: increased over time
- ABL level after washout [7, 10]: almost disappeared
- apoptosis of K562 cells [8]: obvious apoptosis
